Measured values: patent US5188830A, “Methods for thrombolytic therapy” (Merck & Co., Inc., priority 1990, dated 1993)

System: blood clots
Assay: in vitro clot lysis assay (release of solubilized 125I-fibrin-derived fragments, lysis initiated by TPA)
Method: In the assay, whole blood or plasma is charged with ^125 I-fibrinogen. Thrombin is added to initiate clot formation and subsequently incubated for 2 hours to complete the cross-linking by endogenous Factor XIII. Factor XIIIa inhibitor is added prior to clot initiation or at various times during the 2-hour incubation. At the end of this period, the labelled clot is washed and lysis is initiated by exogenous tissue plasminogen activator (TPA). Exogenous plasminogen is employed in some experiments. Endogenous plasminogen is used for others. Clot dissolution as a function of time is monitored by the release of solubilized ^125 I-fibrin-derived fragments.
In FIGS. 1 and 2, the open symbols indicate absence of cerulenin and the closed symbols indicate the presence of 200 μM cerulenin at the time of clot formation. Clot lysis is conducted in buffer, pH 7.5; 5 ng/mL TPA represents approximate physiologic concentration. 50 to […] represents pharmacologic concentration range. […] FIG. 2 studies employed glu-plasminogen levels at approximately 10 percent physiologic level (12 μ/mL).

## C/C=C/C/C=C/CCC(=O)[C@H]1O[C@H]1C(N)=O [Cerulenin, 3-(1-oxo-4,7-nonadienyl)-oxiranecarboxamide]
200 μM cerulenin at clot formation, no exogenous plasminogen, TPA at physiological and pharmacological levels, buffer pH 7.5 (FIG. 1)
  rates and extents of clot lysis: enhanced rates and extents of lysis
200 μM cerulenin, 12 μg/mL exogenous glu-plasminogen, TPA, buffer pH 7.5 (FIG. 2)
  rate of TPA catalyzed clot lysis: lysis rates were further enhanced
